Results from patent US9695155B2, “Herbicidal substituted pyrimidinyloxy benzene compounds” (E. I. DU PONT DE NEMOURS AND COMPANY, priority 2013, dated 2017).

Key:
[1] = test system: morningglory; assay: Test A postemergence; format: in vivo, Ipomoea spp.
Excerpt: (§1) Seeds of plant species selected from barnyardgrass (Echinochloa crus-galli), kochia (Kochia scoparia), ragweed (common ragweed, Ambrosia elatior), Italian ryegrass (Lolium multiflorum), large (Lg) crabgrass (Digitaria sanguinalis), giant foxtail (Setaria faberii), morningglory (Ipomoea spp.), pigweed (Amaranthus retroflexus), velvetleaf (Abutilon theophrasti), wheat (Triticum aestivum), and corn (Zea mays) were planted into a blend of loam soil and sand and treated preemergence with a directed soil spray using test chemicals formulated in a non-phytotoxic solvent mixture which included a surfactant.
(§2) At the same time, plants selected from these crop and weed species and also blackgrass (Alopecurus myosuroides), and galium (catchweed bedstraw, Galium aparine) were planted in pots containing the same blend of loam soil and sand and treated with postemergence applications of test chemicals formulated in the same manner. Plants ranged in height from 2 to 10 cm and were in the one- to two-leaf stage for the postemergence treatment. Treated plants and untreated controls were maintained in a greenhouse for approximately 10 days, after which time all treated plants were compared to untreated controls and visually evaluated for injury. Plant response ratings, summarized in Table A, are based on a 0 to 100 scale where 0 is no effect and 100 is complete control. A dash (-) response means no test result.

[2] = test system: barnyardgrass; assay: Test A postemergence; format: in vivo, Echinochloa crus-galli
Excerpt: as §1, §2

[3] = test system: wheat; assay: Test A preemergence; format: in vivo, Triticum aestivum
Excerpt: as §1, §2

[4] = test system: wheat; assay: Test A postemergence; format: in vivo, Triticum aestivum
Excerpt: as §1, §2

[5] = test system: velvetleaf; assay: Test A postemergence; format: in vivo, Abutilon theophrasti
Excerpt: as §1, §2

[6] = test system: velvetleaf; assay: Test A preemergence; format: in vivo, Abutilon theophrasti
Excerpt: as §1, §2

[7] = test system: barnyardgrass; assay: Test A preemergence; format: in vivo, Echinochloa crus-galli
Excerpt: as §1, §2

[8] = test system: giant foxtail; assay: Test A preemergence; format: in vivo, Setaria faberii
Excerpt: as §1, §2

[9] = test system: pigweed; assay: Test A preemergence; format: in vivo, Amaranthus retroflexus
Excerpt: as §1, §2

[10] = test system: giant foxtail; assay: Test A postemergence; format: in vivo, Setaria faberii
Excerpt: as §1, §2

[11] = test system: pigweed; assay: Test A postemergence; format: in vivo, Amaranthus retroflexus
Excerpt: as §1, §2

[12] = test system: large (Lg) crabgrass; assay: Test A postemergence; format: in vivo, Digitaria sanguinalis
Excerpt: as §1, §2

[13] = test system: corn; assay: Test A preemergence; format: in vivo, Zea mays
Excerpt: as §1, §2

[14] = test system: morningglory; assay: Test A preemergence; format: in vivo, Ipomoea spp.
Excerpt: as §1, §2

[15] = test system: large (Lg) crabgrass; assay: Test A preemergence; format: in vivo, Digitaria sanguinalis
Excerpt: as §1, §2

[16] = test system: corn; assay: Test A postemergence; format: in vivo, Zea mays
Excerpt: as §1, §2

[17] = 1000 g ai/ha, 0 to 100 scale, 0 no effect, 100 complete control
[18] = 1000 g ai/ha, 0 to 100 scale, 0 no effect, 100 complete control, approx. 10 days
[19] = 500 g ai/ha, 0 to 100 scale where 0 is no effect and 100 is complete control

Clc1cnc(Oc2ccccc2-n2cccn2)nc1 [Compound 12, 5-chloro-2-[2-(1H-pyrazol-1-yl)phenoxy]pyrimidine]
pest or weed control at 1000 g/ha ([1]; Ipomoea, post-emergence, 240 h, 1000 g ai/ha, 0 to 100 scale, 0 no effect, 100 complete control, read-out: Plant response rating Morningglory): 90% | pest or weed control at 1000 g/ha ([2]; Echinochloa crus-galli, post-emergence, 240 h, 1000 g ai/ha, 0 to 100 scale, 0 no effect, 100 complete control, read-out: Plant response rating Barnyardgrass): 90% | plant injury at 1000 g/ha ([3]; Triticum aestivum, pre-emergence, 240 h, 1000 g ai/ha, 0 to 100 scale, 0 no effect, 100 complete control, approx. 10 days, read-out: Wheat plant response rating): 20% | plant injury at 1000 g/ha ([4]; Triticum aestivum, post-emergence, 240 h, 1000 g ai/ha, 0 to 100 scale, 0 no effect, 100 complete control, read-out: Plant response rating Wheat): 20% | pest or weed control at 1000 g/ha ([5]; Abutilon theophrasti, post-emergence, 240 h, 1000 g ai/ha, 0 to 100 scale, 0 no effect, 100 complete control, read-out: Plant response rating Velvetleaf): 100% | pest or weed control at 1000 g/ha ([6]; Abutilon theophrasti, pre-emergence, 240 h, 1000 g ai/ha, 0 to 100 scale, 0 no effect, 100 complete control, approx. 10 days, read-out: Velvetleaf plant response rating): 100% | pest or weed control at 1000 g/ha ([7]; Echinochloa crus-galli, pre-emergence, 240 h, 1000 g ai/ha, 0 to 100 scale, 0 no effect, 100 complete control, read-out: Plant response rating, Barnyardgrass): 100% | pest or weed control at 1000 g/ha ([8]; Setaria faberi, pre-emergence, 240 h, 1000 g ai/ha, 0 to 100 scale, 0 no effect, 100 complete control, approx. 10 days, read-out: Foxtail, Giant plant response rating): 100% | pest or weed control at 1000 g/ha ([9]; Amaranthus retroflexus, pre-emergence, 240 h, 1000 g ai/ha, 0 to 100 scale, 0 no effect, 100 complete control, approx. 10 days, read-out: Pigweed plant response rating): 100% | pest or weed control at 1000 g/ha ([10]; Setaria faberi, post-emergence, 240 h, 1000 g ai/ha, 0 to 100 scale, 0 no effect, 100 complete control, read-out: Plant response rating Foxtail, Giant): 80% | pest or weed control at 1000 g/ha ([11]; Amaranthus retroflexus, post-emergence, 240 h, 1000 g ai/ha, 0 to 100 scale, 0 no effect, 100 complete control, read-out: Plant response rating Pigweed): 100% | pest or weed control at 1000 g/ha ([12]; Digitaria sanguinalis, post-emergence, 240 h, 1000 g ai/ha, 0 to 100 scale, 0 no effect, 100 complete control, read-out: Plant response rating Crabgrass, Large): 80% | Corn plant response rating (crop injury, 0 = no effect, 100 = complete kill) at 1000 g/ha ([13]; Zea mays, pre-emergence, 240 h, 1000 g ai/ha, 0 to 100 scale, 0 no effect, 100 complete control): 0% | pest or weed control at 1000 g/ha ([14]; Ipomoea, pre-emergence, 240 h, 1000 g ai/ha, 0 to 100 scale, 0 no effect, 100 complete control, approx. 10 days, read-out: Morningglory plant response rating): 0% | pest or weed control at 1000 g/ha ([15]; Digitaria sanguinalis, pre-emergence, 240 h, 1000 g ai/ha, 0 to 100 scale, 0 no effect, 100 complete control, read-out: Plant response rating, Crabgrass, Large): 100% | plant injury at 1000 g/ha ([16]; Zea mays, post-emergence, 240 h, 1000 g ai/ha, 0 to 100 scale, 0 no effect, 100 complete control, read-out: Plant response rating Corn): 30%

CC(=O)Oc1cccc(Oc2ncc(Cl)cn2)c1-n1cc(Br)cn1 [Compound 67]
Plant response rating, Morningglory [1, 17]: 10 | Plant response rating, Barnyardgrass [2, 17]: 20 | Wheat plant response rating [3, 18]: 0 | Plant response rating, Wheat [4, 17]: 0 | Plant response rating, Velvetleaf [5, 17]: 70 | Velvetleaf plant response rating [6, 18]: 10 | Plant response rating, Barnyardgrass [7, 17]: 0 | Foxtail, Giant plant response rating [8, 18]: 10 | Pigweed plant response rating [9, 18]: 100 | Plant response rating, Foxtail, Giant [10, 17]: 10 | Plant response rating, Pigweed [11, 17]: 100 | Plant response rating, Crabgrass, Large [12, 17]: 10 | Plant response rating, Corn [13, 17]: 0 | Morningglory plant response rating [14, 18]: 0 | Plant response rating, Crabgrass, Large [15, 17]: 20 | Plant response rating, Corn [16, 17]: 10

N#CCOc1cccc(Oc2ncc(Cl)cn2)c1-n1cc(Br)cn1 [Compound 70]
Plant response rating, Morningglory [1, 17]: 20 | Plant response rating, Barnyardgrass [2, 17]: 80 | Wheat plant response rating [3, 18]: 0 | Plant response rating, Wheat [4, 17]: 0 | Plant response rating, Velvetleaf [5, 17]: 70 | Velvetleaf plant response rating [6, 18]: 70 | Plant response rating, Barnyardgrass [7, 17]: 50 | Foxtail, Giant plant response rating [8, 18]: 60 | Pigweed plant response rating [9, 18]: 90 | Plant response rating, Foxtail, Giant [10, 17]: 60 | Plant response rating, Pigweed [11, 17]: 70 | Plant response rating, Crabgrass, Large [12, 17]: 60 | Plant response rating, Corn [13, 17]: 0 | Morningglory plant response rating [14, 18]: 10 | Plant response rating, Crabgrass, Large [15, 17]: 90 | Plant response rating, Corn [16, 17]: 10

Fc1cccc(Oc2ncc(Cl)cn2)c1-n1cccn1 [Compound 176]
Plant response rating, Morningglory [1, 19]: 80 | Plant response rating, Barnyardgrass [2, 19]: 40 | Wheat plant response rating [3, 19]: 0 | Plant response rating, Wheat [4, 19]: 10 | Plant response rating, Velvetleaf [5, 19]: 90 | Velvetleaf plant response rating [6, 19]: 90 | Barnyardgrass plant response rating [7, 19]: 60 | Foxtail, Giant plant response rating [8, 19]: 100 | Pigweed plant response rating [9, 19]: 100 | Plant response rating, Foxtail, Giant [10, 19]: 50 | Plant response rating, Pigweed [11, 19]: 100 | Plant response rating, Crabgrass, Large [12, 19]: 40 | Corn plant response rating [13, 19]: 0 | Morningglory plant response rating [14, 19]: 0 | Crabgrass, Large plant response rating [15, 19]: 100 | Plant response rating, Corn [16, 19]: 20

COc1ccc(I)c(-n2cc(Br)cn2)c1Oc1ncc(Cl)cn1 [Compound 207]
Plant response rating, Morningglory [1, 17]: 30 | Plant response rating, Barnyardgrass [2, 17]: 10 | Wheat plant response rating [3, 18]: 0 | Plant response rating, Wheat [4, 17]: 0 | Plant response rating, Velvetleaf [5, 17]: 30 | Velvetleaf plant response rating [6, 18]: 30 | Barnyardgrass plant response rating [7, 18]: 0 | Foxtail, Giant plant response rating [8, 18]: 50 | Pigweed plant response rating [9, 18]: 0 | Plant response rating, Foxtail, Giant [10, 17]: 60 | Plant response rating, Pigweed [11, 17]: 70 | Plant response rating, Crabgrass, Large [12, 17]: 40 | Corn plant response rating [13, 18]: 0 | Morningglory plant response rating [14, 18]: 0 | Crabgrass, Large plant response rating [15, 18]: 50 | Plant response rating, Corn [16, 17]: 0

Oc1cccc(Oc2ncc(Cl)cn2)c1-n1cc(Cl)cn1 [Compound 229]
Plant response rating, Morningglory [1, 17]: 0 | Plant response rating, Barnyardgrass [2, 17]: 0 | Wheat plant response rating [3, 18]: 0 | Plant response rating, Wheat [4, 17]: 0 | Plant response rating, Velvetleaf [5, 17]: 0 | Velvetleaf plant response rating [6, 18]: 0 | Barnyardgrass plant response rating [7, 18]: 0 | Foxtail, Giant plant response rating [8, 18]: 0 | Pigweed plant response rating [9, 18]: 100 | Plant response rating, Foxtail, Giant [10, 17]: 0 | Plant response rating, Pigweed [11, 17]: 60 | Plant response rating, Crabgrass, Large [12, 17]: 0 | Corn plant response rating [13, 18]: 0 | Morningglory plant response rating [14, 18]: 0 | Crabgrass, Large plant response rating [15, 18]: 10 | Plant response rating, Corn [16, 17]: 0

Fc1cc(F)cc(-c2cn(-c3c(Br)cccc3Oc3ncc(Cl)cn3)nn2)c1 [Compound 303]
Plant response rating, Morningglory [1, 17]: 30 | Plant response rating, Barnyardgrass [2, 17]: 20 | Wheat plant response rating [3, 18]: 0 | Plant response rating, Wheat [4, 17]: 0 | Plant response rating, Velvetleaf [5, 17]: 70 | Velvetleaf plant response rating [6, 18]: 0 | Barnyardgrass plant response rating [7, 18]: 0 | Foxtail, Giant plant response rating [8, 18]: 50 | Pigweed plant response rating [9, 18]: 80 | Plant response rating, Foxtail, Giant [10, 17]: 20 | Plant response rating, Pigweed [11, 17]: 90 | Plant response rating, Crabgrass, Large [12, 17]: 20 | Corn plant response rating [13, 18]: 0 | Morningglory plant response rating [14, 18]: 0 | Crabgrass, Large plant response rating [15, 18]: 60 | Plant response rating, Corn [16, 17]: 10
